SMILES strings stand for the structures.

The test system of the assay is primary rat mixed cortical cells. Put plainly: In vitro myelination assay (MBP positive myelin strands, fold myelin pixels above background). The assay is classed as cell-based. The settings on record: Rattus norvegicus, relative to baseline of no added compound, read-out: Fold myelin pixels above background; for fold induction at 1 µM: 1.0 μM compound; for fold induction at 10 µM: 10.0 μM compound. In a few lines: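 P1 rat cortical cells (neurons, OPCs, oligodendrocytes, astrocytes, microglia) were cultured 14 days at 37 °C with compound, with half-medium changes containing 1× compound on days 6 and 10. Fixed cells were immunostained for MBP and imaged at 10×. Total MBP myelin pixels per well were expressed as fold above no-compound baseline at 1.0 μM and 10.0 μM.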

Regarding `Cc1cc(Nc2ncn(-c3cccc(C#N)c3)n2)cc(N2CCN(C)CC2)c1` [Compound 499, 3-[3-[3-methyl-5-(4-methylpiperazin-1-yl)anilino]-1,2,4-triazol-1-yl]benzonitrile], the fold induction at 1 µM is 100 to 1000 and the fold induction at 10 µM lay in the range of 10 to 100.

`CC(=O)N(C)C1CCN(c2cc(C)cc(Nc3ncn(-c4cc(F)cc(F)c4)n3)c2)C1` (stereo not drawn) [Compound 500, N-[1-[3-[[1-(3,5-difluorophenyl)-1,2,4-triazol-3-yl]amino]-5-methyl-phenyl]pyrrolidin-3-yl]-N-methyl-acetamide]: the fold induction at 1 µM was in the range of 100 to 1000 and the fold induction at 10 µM lay within 1 to 10.

For the compound `Cc1cc(Nc2ncn(-c3ccc(F)c(F)c3)n2)nc(N2CC(N3CCOCC3)C2)c1` [Compound 501, N-[1-(3,4-difluorophenyl)-1,2,4-triazol-3-yl]-4-methyl-6-(3-morpholinoazetidin-1-yl)pyridin-2-amine], the fold induction at 1 µM was in the range of 1 to 10 and the fold induction at 10 µM was no more than 1.

In the case of `Cc1cc(Nc2ncn(-c3ccccc3)n2)nc(N2CC(N3CCOCC3)C2)c1` [Compound 502, 4-methyl-6-(3-morpholinoazetidin-1-yl)-N-(1-phenyl-1,2,4-triazol-3-yl)pyridin-2-amine], the fold induction at 1 µM fell in the range of 1 to 10 and the fold induction at 10 µM is no more than 1.

With `Cc1cc(Nc2ncn(-c3ccccn3)n2)nc(N2CC(N3CCOCC3)C2)c1` [Compound 503, 4-methyl-6-(3-morpholinoazetidin-1-yl)-N-[1-(2-pyridyl)-1,2,4-triazol-3-yl]pyridin-2-amine], the fold induction at 1 µM was in the range of 1 to 10 and the fold induction at 10 µM is no more than 1.

As to `Cc1cc(Nc2ncn(-c3ccnc(F)c3)n2)nc(N2CC(N3CCOCC3)C2)c1` [Compound 504, N-[1-(2-fluoro-4-pyridyl)-1,2,4-triazol-3-yl]-4-methyl-6-(3-morpholinoazetidin-1-yl)pyridin-2-amine], the fold induction at 1 µM is 10 to 100 and the fold induction at 10 µM was in the range of 10 to 100.

As for `CC(=O)OCC(C)(COC(C)=O)N1CCN(c2cc(C)cc(Nc3ncn(-c4cc(F)cc(F)c4)n3)c2)CC1` [Compound 505, [3-acetoxy-2-[4-[3-[[1-(3,5-difluorophenyl)-1,2,4-triazol-3-yl]amino]-5-methyl-phenyl]piperazin-1-yl]-2-methyl-propyl] acetate], the fold induction at 1 µM is 10 to 100 and the fold induction at 10 µM was no more than 1.

Take `Cc1cc(Nc2ncn(-c3cc(F)cc(F)c3)n2)cc(N2CC(C3COC3)C2)c1` [Compound 506, 1-(3,5-difluorophenyl)-N-[3-methyl-5-[3-(oxetan-3-yl)azetidin-1-yl]phenyl]-1,2,4-triazol-3-amine]: the fold induction at 1 µM is 100 to 1000 and the fold induction at 10 µM lay in the range of 1 to 10.

With `FC(F)(F)c1cc(Nc2ncn(-c3cnccn3)n2)cc(N2CCC(C3COC3)CC2)c1` [Compound 507, N-[3-[4-(oxetan-3-yl)-1-piperidyl]-5-(trifluoromethyl)phenyl]-1-pyrazin-2-yl-1,2,4-triazol-3-amine], the fold induction at 1 µM lay within 10 to 100 and the fold induction at 10 µM was in the range of 100 to 1000.

As for `Cc1cc(Nc2ncn(-c3cc(F)cc(F)c3)n2)cc(N2CC3(CCO3)C2)c1` [Compound 508, 1-(3,5-difluorophenyl)-N-[3-methyl-5-(3-oxa-6-azaspiro[3.3]heptan-6-yl)phenyl]-1,2,4-triazol-3-amine], the fold induction at 1 µM fell in the range of 100 to 1000 and the fold induction at 10 µM lay in the range of 10 to 100.

With `Cc1cc(Nc2ncn(-c3cc(F)cc(F)c3)n2)cc(N2CCN(C(C)(C)C(=O)O)CC2)c1` [Compound 509, 2-[4-[3-[[1-(3,5-difluorophenyl)-1,2,4-triazol-3-yl]amino]-5-methyl-phenyl]piperazin-1-yl]-2-methyl-propanoic acid], the fold induction at 1 µM fell in the range of 100 to 1000 and the fold induction at 10 µM lay within 100 to 1000.

For the compound `Cc1cc(Nc2ncn(-c3cc(F)cc(F)c3)n2)cc(N2CC(N3CCCC3)C2)c1` [Compound 510, 1-(3,5-difluorophenyl)-N-[3-methyl-5-(3-pyrrolidin-1-ylazetidin-1-yl)phenyl]-1,2,4-triazol-3-amine], the fold induction at 1 µM is 1 to 10 and the fold induction at 10 µM fell in the range of 10 to 100.

Take `CC(C)c1cc(Nc2ncn(-c3ccncn3)n2)cc(N2CCN(C3COC3)CC2)c1` [Compound 511, N-[3-isopropyl-5-[4-(oxetan-3-yl)piperazin-1-yl]phenyl]-1-pyrimidin-4-yl-1,2,4-triazol-3-amine]: the fold induction at 1 µM was 100 to 1000 and the fold induction at 10 µM fell in the range of 100 to 1000.

Regarding `FC(F)(F)c1cc(Nc2ncn(-c3cnccn3)n2)cc(N2CC3CC(C2)O3)c1` [Compound 513, N-[3-(6-oxa-3-azabicyclo[3.1.1]heptan-3-yl)-5-(trifluoromethyl)phenyl]-1-pyrazin-2-yl-1,2,4-triazol-3-amine], the fold induction at 1 µM was 100 to 1000 and the fold induction at 10 µM was 100 to 1000.

As to `FC(F)(F)c1cc(Nc2ncn(-c3cnccn3)n2)cc(N2CCN(C3COC3)CC2)c1` [Compound 514, N-[3-[4-(oxetan-3-yl)piperazin-1-yl]-5-(trifluoromethyl)phenyl]-1-pyrazin-2-yl-1,2,4-triazol-3-amine], the fold induction at 1 µM was 10 to 100 and the fold induction at 10 µM fell in the range of 100 to 1000.

As to `Cc1cc(Nc2ncn(-c3cc(F)cc(F)c3)n2)cc(C2(F)CCN(C3COC3)CC2)c1` [Compound 515, 1-(3,5-difluorophenyl)-N-[3-[4-fluoro-1-(oxetan-3-yl)-4-piperidyl]-5-methyl-phenyl]-1,2,4-triazol-3-amine], the fold induction at 1 µM is no more than 1 and the fold induction at 10 µM was 1 to 10.

For the compound `Cc1cc(Nc2ncn(-c3cc(F)cc(F)c3)n2)cc(C2(O)CCN(C3COC3)CC2)c1` [Compound 516, 4-[3-[[1-(3,5-difluorophenyl)-1,2,4-triazol-3-yl]amino]-5-methyl-phenyl]-1-(oxetan-3-yl)piperidin-4-ol], the fold induction at 1 µM lay in the range of 10 to 100 and the fold induction at 10 µM fell in the range of 10 to 100.

Turning to `Cc1cc(Nc2ncn(-c3cc(F)cc(F)c3)n2)cc(N2CCOC2=O)c1` [Compound 517, 3-[3-[[1-(3,5-difluorophenyl)-1,2,4-triazol-3-yl]amino]-5-methyl-phenyl]oxazolidin-2-one], the fold induction at 1 µM lay within 10 to 100 and the fold induction at 10 µM lay within 10 to 100.

In the case of `Cc1cc(Nc2ncn(-c3cc(F)cc(F)c3)n2)cc(N2CC(O)(C(C)C)C2)c1` [Compound 518, 1-[3-[[1-(3,5-difluorophenyl)-1,2,4-triazol-3-yl]amino]-5-methyl-phenyl]-3-isopropyl-azetidin-3-ol], the fold induction at 1 µM fell in the range of 10 to 100 and the fold induction at 10 µM lay within 10 to 100.

Turning to `Cc1cc(Nc2ncn(-c3cc(F)cc(F)c3)n2)cc(N2CC(C(C)(C)O)C2)c1` [Compound 519, 2-[1-[3-[[1-(3,5-difluorophenyl)-1,2,4-triazol-3-yl]amino]-5-methyl-phenyl]azetidin-3-yl]propan-2-ol], the fold induction at 1 µM lay in the range of 100 to 1000 and the fold induction at 10 µM is no more than 1.

Turning to `COC1CC(Nc2cc(C)cc(Nc3ncn(-c4cc(F)cc(F)c4)n3)c2)C1` (stereo not drawn) [Compound 520, N3-[1-(3,5-difluorophenyl)-1,2,4-triazol-3-yl]-N1-(3-methoxycyclobutyl)-5-methyl-benzene-1,3-diamine], the fold induction at 1 µM is 100 to 1000 and the fold induction at 10 µM is no more than 1.
